Experimental findings from US12042493B2, “Pharmaceutical compounds for use in treating Huntington's disease” (ADEPTIO PHARMACEUTICALS LIMITED, priority 2018, dated 2024) are described below.

SMILES strings stand for the structures. “Also recorded” adds a separate entry of the source.

The subject of test [1] is R6/2 mouse model of Huntington's disease. The test can be described thus: Survival rates in R6/2 mouse model of Huntington's disease. Type of test: in vivo. The note with it: for Number of mice alive at the end of the study / Survival Rate (%): male R6/2 mice. As for the experimental part: The objective of this study was to investigate the efficacy of (+)-α-dihydrotetrabenazine in the R6/2 mouse model of Huntington's disease. The mice were treated with (+)-α-dihydrotetrabenazine ((+)-α-DHTBZ), tetrabenazine (TBZ) or vehicle starting at 4 weeks of age and continuing until 13 weeks of age.
In total, 38 male R6/2 mice and 9 wild type (WT) littermates were used in the study. Mice were dosed from 4 weeks of age until 13 weeks of age. During the course of the study, the body weight of the animals was measured twice-α-week for the whole study duration. At the end of the study, the mice were sacrificed and only tail samples were collected.
All animal experiments were performed as specified in the license authorized by the national Animal Experiment Board of Finland and according to the National Institutes of Health (Bethesda, MD, USA) guidelines for the care and use of laboratory animals. In total, 38 male R6/2 mice and 9 wild type (WT) littermates were used in the study. Only mice with normal plasma bile acid levels were used for the study.
Animals were grouped as follows: • Group 1: 9 male wild-type (WT) mice treated with vehicle (p.o.) from 4-13 weeks of age • Group 2: 9 male R6/2 mice treated with vehicle (p.o.) from 4-13 weeks of age • Group 3: 10 male R6/2 mice treated with (+)-α-DHTBZ (1.5 mg/kg, p.o.) from 4-13 weeks of age • Group 4: 10 male R6/2 mice treated with (+)-α-DHTBZ (3 mg/kg, p.o.) from 4-13 weeks of age • Group 5: 9 male R6/2 mice treated with tetrabenazine (1.5 mg/kg, p.o.) from 4-13 weeks of age
(+)-α-DHTBZ, TBZ and vehicle were administered each day (10 ml/kg, p.o., QD) at approximately the same time of the day for all the mice, starting at 9 a.m.-11 a.m., when the daily dosing was performed at least 1 hour before the tests.
The mice were monitored until end point or the fulfilment of the euthanasia criteria.
A one-tailed, N-1 Two Proportion Test was used to determine statistically significant differences in the survival rates between the treatment groups.

For test [2] the test system is unchanged. The test can be described thus: Tremor evaluation in the Tremor Monitor chamber, R6/2 mice. Conditions: 3.0 mg/kg p.o., pairwise t-test vs R6/2 Vehicle group, FIG. 3. Format: in vivo. The procedure: The objective of this study was to investigate the efficacy of (+)-α-dihydrotetrabenazine in the R6/2 mouse model of Huntington's disease. The mice were treated with (+)-α-dihydrotetrabenazine ((+)-α-DHTBZ), tetrabenazine (TBZ) or vehicle starting at 4 weeks of age and continuing until 13 weeks of age. […] The extent of tremor of the mice was evaluated at 7 and 13 weeks of age. […] The mice were placed inside a Tremor Monitor (San Diego Instruments, SDI) chamber for a 10 minute acclimatisation period, following which the tremor activity of the mice was measured for approximately 8 minutes. The recorded frequencies (1-64 hertz) of activity and the number of tremor events were captured electronically. Data were analysed by the Tremor Monitor software (San Diego Instruments) in a two part process. Using a Fast Fourier Transform (FFT), an output was provided showing the percentage of activity (energy) recorded at each frequency. […]

Setting [3] is: 1.5 mg/kg p.o. QD from 4-13 weeks of age.
Setting [4] is: 3.0 mg/kg p.o. QD from 4-13 weeks of age.

For the compound `COc1cc2c(cc1OC)C1CC(=O)C(CC(C)C)CN1CC2` (racemic) [TBZ, 1,3,4,6,7,11b-hexahydro-9,10-dimethoxy-3-(2-methylpropyl)-2H-benzo(a)quinolizin-2-one, reference compound], in test [1] (setting [3]), the “Number of mice alive at the end of the study” value (shortened to “Number of mice alive”) amounted to 7 and the “Survival Rate (%)” value amounted to 77.8%.
Consider `COc1cc2c(cc1OC)[C@H]1C[C@@H](O)[C@H](CC(C)C)CN1CC2` [(+)-α-DHTBZ, (2R, 3R, 11bR)-3-isobutul-9,10-dimethox-1,3,4,6,7,11b-hexahydro-2H-pyrido[2,1,a]isoquinolin-2-ol], for which the “Survival rate / lifespan of R6/2 mice versus vehicle or tetrabenazine (in words)” value in test [1] (R6/2 mice, at both 1.5 mg/kg and 3.0 mg/kg, listed as (+)-α-dihydrotetrabenazine) was “significantly longer than the survival rates of the R6/2 mice treated with vehicle or tetrabenazine; also recorded: prolonged lifespan compared to untreated control R6/2 mice and R6/2 mice that had been treated with tetrabenazine”. For the same compound, in test [1] (setting [3]), the “Number of mice alive” value was 10 and the “Survival Rate (%)” value turned out to be 100%. Besides, in test [1] (setting [4]), the “Number of mice alive” value is listed as 10 and the “Survival Rate (%)” value is reported as 100%. For the same compound, the “Tremor Power Spectral Density at 12 Hz” value in test [2] is recorded as “significantly different compared to the R6/2 Vehicle group”.
